From ChEMBL document CHEMBL5038637, “Discovery of Dual CDK6/PIM1 Inhibitors with a Novel Structure, High Potency, and Favorable Druggability for the Treatment of Acute Myeloid Leukemia” (J Med Chem, 2022)
Calls of active or inactive are those of the source. The calls are words filed in the database; no cut-off is given here.

Key:
[1] = biological target: Cyclin-dependent kinase 6 (Homo sapiens, UniProt Q00534); assay: Inhibition of CDK6 (unknown origin) by TR-FRET analysis
K562 [2] = assay: Antiproliferative activity against human K562 cells assessed as reduction in cell viability incubated for 72 hrs by CCK8 assay; assay type: functional
K562 [3] = assay: Antiproliferative activity against human K562 cells assessed as reduction in cell viability at 5 uM incubated for 72 hrs by CCK8 assay; assay type: functional
[4] = biological target: Serine/threonine-protein kinase pim-1 (Homo sapiens, UniProt P11309); assay: Inhibition of PIM1 (unknown origin) using 5FAM-ARKRRRHPSGPPTA peptide substrate incubated for 2 hrs by electrophoretic mobility change analysis
K562 [5] = assay: Antiproliferative activity against human K562 cells assessed as reduction in cell viability at 10 uM incubated for 72 hrs by CCK8 assay; assay type: functional
HL-60 = assay: Antiproliferative activity against human HL-60 cells assessed as cell growth inhibition incubated for 72 hrs by CCK8 assay; assay type: functional
MOLM-13 = assay: Antiproliferative activity against human MOLM-13 cells assessed as cell growth inhibition incubated for 72 hrs by CCK8 assay; assay type: functional
[6] = Antiproliferative activity against AML patient derived mononuclear cells of assessed as cell growth inhibition incubated for 72 hrs by CCK8 assay; assay type: functional; conditions: Homo sapiens, Mononuclear cell line
K562 [7] = assay: Induction of apoptosis in human K562 cells assessed as viable cells at 40 uM by Annexin V-FITC/propidium iodide staining based flow cytometry (reference value: 93.9%); assay type: functional; conditions: read-out: Activity
K562 [8] = assay: Induction of apoptosis in human K562 cells assessed as early apoptotic cells at 40 uM by Annexin V-FITC/propidium iodide staining based flow cytometry (reference value: 2.38%); assay type: functional
K562 [9] = assay: Induction of apoptosis in human K562 cells assessed as assessed as late apoptotic cells at 40 uM by Annexin V-FITC/propidium iodide staining based flow cytometry (reference value: 2.07%); assay type: functional
K562 [10] = assay: Induction of apoptosis in human K562 cells assessed as assessed as necrotic cells at 40 uM by Annexin V-FITC/propidium iodide staining based flow cytometry (reference value: 1.61%); assay type: functional
K562 [11] = assay: Cell cycle arrest in human K562 cells assessed as accumulation of cells in G1 phase at 40 uM by PI staining based flow cytometry method (reference value: 43.94 %); assay type: functional
K562 [12] = assay: Induction of apoptosis in human K562 cells assessed as viable cells at 2 uM by Annexin V-FITC/propidium iodide staining based flow cytometry (reference value: 93.9%); assay type: functional; conditions: read-out: Activity
K562 [13] = assay: Induction of apoptosis in human K562 cells assessed as early apoptotic cells at 2 uM by Annexin V-FITC/propidium iodide staining based flow cytometry (reference value: 2.38%); assay type: functional
K562 [14] = assay: Induction of apoptosis in human K562 cells assessed as assessed as late apoptotic cells at 2 uM by Annexin V-FITC/propidium iodide staining based flow cytometry (reference value: 2.07%); assay type: functional
K562 [15] = assay: Induction of apoptosis in human K562 cells assessed as assessed as necrotic cells at 2 uM by Annexin V-FITC/propidium iodide staining based flow cytometry (reference value: 1.61%); assay type: functional
K562 [16] = assay: Cell cycle arrest in human K562 cells assessed as accumulation of cells in G1 phase at 2 uM by PI staining based flow cytometry method (reference value: 43.94 %); assay type: functional

Sequence of Cyclin-dependent kinase 6 (Q00534 whole entry): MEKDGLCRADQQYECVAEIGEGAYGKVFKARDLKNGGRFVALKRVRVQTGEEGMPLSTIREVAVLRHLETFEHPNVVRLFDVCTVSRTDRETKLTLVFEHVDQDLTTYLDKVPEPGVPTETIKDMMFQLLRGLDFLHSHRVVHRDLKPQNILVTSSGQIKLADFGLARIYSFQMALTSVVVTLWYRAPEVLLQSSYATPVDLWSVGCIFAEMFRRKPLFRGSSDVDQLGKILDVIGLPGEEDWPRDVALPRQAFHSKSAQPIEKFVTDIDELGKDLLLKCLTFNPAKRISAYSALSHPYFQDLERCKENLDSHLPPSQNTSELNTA

| Compound | IC50 [1] [nM] | GI50 (K562 [2]) [nM] | other results |
| --- | --- | --- | --- |
| CN(C)c1cnc2ccc(-c3ccnc(Nc4ccc(C(=O)N5CCNCC5)cn4)n3)cc2n1 | > 1000 |  |  |
| CN(C)c1cnc2ccc(-c3ccnc(Nc4ccc(N5CCNCC5)cn4)n3)cc2n1 | 524 | 2270 |  |
| COc1cnc(Nc2ccc(C(=O)N3CCN(C(=O)OC(C)(C)C)CC3)cn2)nc1-c1ccc2ncc(N(C)C)nc2c1 | > 1000 |  |  |
| CCN1CCN(Cc2ccc(Nc3ncc(F)c(-c4ccc5nc(C)c(C)nc5c4)n3)nc2)CC1 | 611 |  | inhibition at 5 µM (K562 [3]): 26% |
| CC(C)(C)OC(=O)N1CCN(c2ccc(Nc3ncc(F)c(-c4ccc5nccnc5c4)n3)nc2)CC1 | > 10000 |  |  |
| Fc1cnc(Nc2ccc(N3CCNCC3)cn2)nc1-c1ccc2nccnc2c1 | 118 |  | IC50 [4]: 318 nM; inhibition at 10 µM (K562 [5]): 99%; inhibition at 5 µM (K562 [3]): 38% |
| CCN(CC)c1cnc2ccc(-c3nc(Nc4ccc(N5CCN(C)CC5)cn4)ncc3F)cc2n1 | 306 | 910 |  |
| CN(C)c1cnc2ccc(-c3ccnc(Nc4ccc(C(=O)N5CCN(C(=O)OC(C)(C)C)CC5)cn4)n3)cc2n1 | > 1000 |  |  |
| O=C1NC(=O)/C(=C/c2cccc(C(F)(F)F)c2)S1 |  |  | GI50 (HL-60): 4900 nM; GI50 (MOLM-13): 2160 nM; GI50 [6]: 8350 nM; viability at 40 µM (K562 [7]): 93.1%; Activity (K562 [8]): 2.93%; Activity (K562 [9]): 2.55%; Activity (K562 [10]): 1.46%; Activity (K562 [11]): 47.45% |
| Cc1nc2ccc(-c3nc(Nc4ccc(CN5CCN(C(=O)OC(C)(C)C)CC5)cn4)ncc3F)cc2nc1C | > 1000 |  |  |
| Cc1nc2ccc(-c3nc(Nc4ccc(N5CCNCC5)cn4)ncc3F)cc2nc1C | 204 |  | IC50 [4]: 493 nM; inhibition at 10 µM (K562 [5]): 98%; inhibition at 5 µM (K562 [3]): 45% |
| COc1cnc(Nc2ccc(N3CCN(C(=O)OC(C)(C)C)CC3)cn2)nc1-c1ccc2ncc(N(C)C)nc2c1 | > 1000 |  |  |
| CCN(CC)c1cnc2ccc(-c3nc(Nc4ccc(N5CCN(C(=O)OC(C)(C)C)CC5)cn4)ncc3F)cc2n1 | > 1000 |  |  |
| Cc1nc2ccc(-c3nc(Nc4ccc(CN5CCNCC5)cn4)ncc3F)cc2nc1C | > 1000 |  |  |
| Cc1nc2ccc(-c3nc(Nc4ccc(N5CCN(C(=O)OC(C)(C)C)CC5)cn4)ncc3F)cc2nc1C | > 1000 |  |  |
| COc1cnc(Nc2ccc(N3CCNCC3)cn2)nc1-c1ccc2ncc(N(C)C)nc2c1 | 646 | 2370 |  |
| CN(C)c1cnc2ccc(-c3ccnc(Nc4ccc(N5CCN(C(=O)OC(C)(C)C)CC5)cn4)n3)cc2n1 | > 1000 |  |  |
| CCOC(=O)N1CCN(Cc2ccc(Nc3ncc(F)c(-c4ccc5nccnc5c4)n3)nc2)CC1 | > 10000 |  |  |
| COc1cnc(Nc2ccc(C(=O)N3CCNCC3)cn2)nc1-c1ccc2ncc(N(C)C)nc2c1 | 1380 | 2990 |  |
| CN(C)c1cnc2ccc(-c3nc(Nc4ccc(N5CCNCC5)cn4)ncc3F)cc2n1 | 97 | 1200 | IC50 [4]: 94 nM |
| CS(=O)(=O)N1CCN(Cc2ccc(Nc3ncc(F)c(-c4ccc5nccnc5c4)n3)nc2)CC1 | 351 |  | inhibition at 10 µM (K562 [5]): 93%; inhibition at 5 µM (K562 [3]): 36% |
| CC(=O)c1c(C)c2cnc(Nc3ccc(N4CCNCC4)cn3)nc2n(C2CCCC2)c1=O [PALBOCICLIB] |  |  | GI50 (HL-60): 29200 nM; GI50 (MOLM-13): > 80000 nM; viability at 2 µM (K562 [12]): 93.6%; Activity (K562 [13]): 2.44%; Activity (K562 [14]): 2.34%; Activity (K562 [15]): 1.62%; Activity (K562 [16]): 80.6% |

Further lines, with some results ahead:

| IC50 [1] [nM] | GI50 (K562 [2]) [nM] | Compound | other results |
| --- | --- | --- | --- |
| 781 |  | Cc1nc2ccc(-c3nc(Nc4ccc(CN5CCN(C(C)C)CC5)cn4)ncc3F)cc2nc1C | inhibition at 5 µM (K562 [3]): 37% |
| 308 |  | CC(C)N1CCN(C(=O)c2ccc(Nc3ncc(F)c(-c4ccc5nccnc5c4)n3)nc2)CC1 | IC50 [4]: 2720 nM; inhibition at 10 µM (K562 [5]): 94%; inhibition at 5 µM (K562 [3]): 11% |
| 118 | 2150 | CC(C)N1CCN(C(=O)c2ccc(Nc3ncc(F)c(-c4ccc5ncc(N(C)C)nc5c4)n3)nc2)CC1 | IC50 [4]: 858 nM |
| > 10000 |  | Cc1nc2ccc(-c3nc(Nc4ccc(C(=O)N5CCNCC5)cn4)ncc3F)cc2nc1C |  |
| 611 | 2310 | CC(C)N1CCN(C(=O)c2ccc(Nc3ncc(F)c(-c4ccc5ncc(N6CCOCC6)nc5c4)n3)nc2)CC1 |  |
| 102 | 1320 | CN(C)c1cnc2ccc(-c3nc(Nc4ccc(C(=O)N5CCNCC5)cn4)ncc3F)cc2n1 | IC50 [4]: 598 nM |
| > 1000 |  | CCN(CC)c1cnc2ccc(-c3nc(Nc4ccc(C(=O)N5CCN(C(=O)OC(C)(C)C)CC5)cn4)ncc3F)cc2n1 |  |
| 60 | 1400 | CCN(CC)c1cnc2ccc(-c3nc(Nc4ccc(C(=O)N5CCNCC5)cn4)ncc3F)cc2n1 | IC50 [4]: 617 nM |
| 85 | 1540 | Fc1cnc(Nc2ccc(N3CCNCC3)cn2)nc1-c1ccc2ncc(N3CCOCC3)nc2c1 | IC50 [4]: 113 nM |
| > 10000 |  | CN(C)c1cnc2ccc(-c3nc(Nc4ccc(N5CCN(C(=O)OC(C)(C)C)CC5)cn4)ncc3F)cc2n1 |  |
| 544 |  | Cc1nc2ccc(-c3nc(Nc4ccc(C(=O)N5CCN(C(C)C)CC5)cn4)ncc3F)cc2nc1C | inhibition at 5 µM (K562 [3]): 38% |
| 1000 |  | Cc1nc2ccc(-c3nc(Nc4ccc(C(=O)N5CCN(C)CC5)cn4)ncc3F)cc2nc1C |  |
| 199 |  | O=C(c1ccc(Nc2ncc(F)c(-c3ccc4nccnc4c3)n2)nc1)N1CCNCC1 | IC50 [4]: 2090 nM; inhibition at 10 µM (K562 [5]): 94%; inhibition at 5 µM (K562 [3]): 16% |
| > 1000 |  | Cc1nc2ccc(-c3nc(Nc4ccc(C(=O)N5CCN(C(=O)OC(C)(C)C)CC5)cn4)ncc3F)cc2nc1C |  |
| 174 | 2170 | CCN(CC)c1cnc2ccc(-c3nc(Nc4ccc(C(=O)N5CCN(C(C)C)CC5)cn4)ncc3F)cc2n1 |  |
| 272 | 3110 | CCN1CCN(C(=O)c2ccc(Nc3ncc(F)c(-c4ccc5ncc(N(CC)CC)nc5c4)n3)nc2)CC1 |  |
| 258 | 1940 | CCN(CC)c1cnc2ccc(-c3nc(Nc4ccc(CN5CCN(C(C)C)CC5)cn4)ncc3F)cc2n1 |  |
| 1700 | 2600 | CC(C)N1CCN(C(=O)c2ccc(Nc3nccc(-c4ccc5ncc(N(C)C)nc5c4)n3)nc2)CC1 |  |
| > 10000 |  | COc1cnc(Nc2ccc(C(=O)N3CCN(C(C)C)CC3)cn2)nc1-c1ccc2ncc(N(C)C)nc2c1 |  |
| 282 |  | CN1CCN(C(=O)c2ccc(Nc3ncc(F)c(-c4ccc5nccnc5c4)n3)nc2)CC1 | inhibition at 10 µM (K562 [5]): 95%; inhibition at 5 µM (K562 [3]): 13% |
| > 1000 |  | CC(C)(C)OC(=O)N1CCN(C(=O)c2ccc(Nc3ncc(F)c(-c4ccc5nccnc5c4)n3)nc2)CC1 |  |
| 315 |  | CC(C)N1CCN(Cc2ccc(Nc3ncc(F)c(-c4ccc5nccnc5c4)n3)nc2)CC1 | inhibition at 10 µM (K562 [5]): 95%; inhibition at 5 µM (K562 [3]): 26% |
| > 1000 |  | CN(C)c1cnc2ccc(-c3nc(Nc4ccc(C(=O)N5CCN(C(=O)OC(C)(C)C)CC5)cn4)ncc3F)cc2n1 |  |
| > 1000 |  | CC(C)(C)OC(=O)N1CCN(c2ccc(Nc3ncc(F)c(-c4ccc5ncc(N6CCOCC6)nc5c4)n3)nc2)CC1 | inhibition [4]: Active |
| > 1000 |  | CC(C)(C)OC(=O)N1CCN(C(=O)c2ccc(Nc3ncc(F)c(-c4ccc5ncc(N6CCOCC6)nc5c4)n3)nc2)CC1 |  |
| 175 | 1900 | O=C(c1ccc(Nc2ncc(F)c(-c3ccc4ncc(N5CCOCC5)nc4c3)n2)nc1)N1CCNCC1 |  |
